Measurements published in patent publication US8053197B2, “Methods for detecting and treating autoimmune disorders” (Oregon Health & Science University, priority 2004, dated 2011).

Tests used:
[1] = system: CD4+CD25+ versus CD4+CD25− populations; test: Proliferation of CD4+CD25+ versus CD4+CD25− populations stimulated with TCR peptide pool or control antigens; assay type: cell-based, human; settings: HC donors with measurable Treg activity
From the text: To establish a connection between TCR-reactive T cells and Treg cells, whether TCR reactivity could be found in the CD4+CD25+ Treg cell subpopulation isolated directly from HC was first determined. Thus, CD4+CD25+ versus CD4+CD25− populations were isolated and stimulated with a pool of eight TCR CDR2 peptides that optimally distinguished differences in IL-10 responses between HC and MS patients (designated as Pool #1), or with control antigens, including Copolymer 1, a pool of neuropeptide antigens, and the recall antigen, TT. […] In addition, five treatment-naïve MS patients had no response to Pool #1 peptides in either the CD4+CD25+ or CD4+CD25− fractions and also had no detectable Treg activity. Six MS patients undergoing standard treatment also lacked response to Pool #1 peptides and Treg activity.

[2] = system: PBMC; test: ELISPOT assay of IL-10 and IFN-γ secreting T cells responding to TCR CDR2 peptides; assay type: cell-based, human; settings: for frequency of IFN-γ secreting cells / frequency of IL-10-secreting T cells: 5 HC donors, single peptide; for response of MS patients compared with HC: expanded panel, 3 MS patients vs 5 HC; for IFN-γ response: recognition by MS patients: induced IFN-γ-secreting T cells in all 5 HC
Procedure: FIGS. 13A-13B PBMC from healthy controls (HC) and MS patients respond differentially to TCR CDR2 peptides. A. Production of IL-10 and IFN-gamma was measured in the PBMC response to TCR BV CDR2 peptides (left) and TCR AV CDR2 peptides (right) representing the entire TCR BV and AV gene repertoire as measured by ELISPOT assay. PBMC responses to ConA were equivalent in HC and MS patients (not shown). B. Summary of cytokine-producing cells in which IL-10 or IFN-gamma production was summed for responses to all BV+AV CDR2 peptides. Total cytokine production represents the summation of IL-10-+IFN-gamma-secreting cells for all peptides. *P<0.05 comparing the frequency in HC vs. MS patients. The HC group consisted of five individuals, three females and two males. The MS patient group consisted of three individuals, two females with relapsing, remitting MS, both symptomatic, and one person with secondary, progressive MS.
To determine antigen-specific T cell frequency by ELISPOT, blood mononuclear cells were separated by Ficoll density gradient centrifugation, resuspended in 2% human AB serum, and aliquotted at 0.5 and 0.25 million cells in triplicate wells of nitrocellulose-coated microliter plates (Becton Dickinson, Franklin Lakes, N.J.) pretreated with anti-IFN-γ (Mabtech, Sweden) or anti-IL-10 (PharMingen, San Diego, Calif.) mAb. Peptides, ConA, and medium were added and the plates incubated at 37C for 24 hours (IFN-γ) or 48 hours (IL-10). Biotin-labeled secondary mAb for each cytokine was added, followed by streptavidin-alkaline phosphatase (Dako Corp., Carpinteria, Calif.) and substrate (BCIP/NBT phosphatase substrate, KPL Laboratories, Gaithersburg, Md.) to develop optimal blue staining. Cytokine spots were quantified using an AID Immunospot Analyzer (AID, Cleveland, Ohio) equipped with a high resolution lens camera and analytical software designed for use with the AID system. Mean spots/well were calculated for each Ag, and net counts established after subtraction of background (no Ag). The frequency of Ag-specific spot-forming cells per million PBMC was determined from the average net response observed at two different cell concentrations. The mean net frequency +SEM was calculated for MS patients and HC, and differences compared by Student's t test for significance (p<0.05).
PBMC were removed from plates by washing with 3× with PBS and 3× with PBS/0.05% Tween, pH 7.6. To each well was added 100 μl of either anti-IFN-γ (1 μg/ml, Mabtech, Sweden) or anti-IL-10 (2 μg/ml, PharMingen, San Diego, Calif.) and incubated for 4 hours at room temperature in the dark. Plates were washed 4× with PBS/Tween, then 100 μl per well of alkaline-phosphatase-conjugated streptavidin (DAKO) (1:1000 of stock) was added and plates were incubated for 45 minutes at room temperature. Plates were washed 4× with PBS/Tween and 6× with PBS, 1 minute each. 100 μl of BCIP/NBT substrate (KPL Laboratories, Gaithersburg, Md.) was added and the color reaction was allowed to develop for 3-7 minutes. Plates were rinsed 3× with distilled water and dried overnight at room temperature.
Plates were scanned with an Immunospot Reader (Cellular Technology Limited, Cleveland, Ohio) with optimized lighting conditions and analyzed according to the predetermined parameters of sensitivity, spot size, and background. The background counts were subtracted, and data was then normalized to cytokine secreting cells per million PBMC plated.
To evaluate native recognition of TCR determinants, the frequency of IL-10 and IFN-γ secreting T cells from the blood of 5 HC (3 females, 2 males, average age 28) was assessed using the ELISPOT assay, to detect responses to a comprehensive panel of 113 unique CDR2 peptides representing nearly all of the AV and BV repertoires (Table 1). Only 3 peptides, AV1 S4A1N1T, BV1551 and BV20S1A1N1, could not be tested due to solubility and toxicity problems. […]

## Glatiramer acetate [Cop-1]
[1]
  proliferation of CD4+CD25+ compared with CD4+CD25− population: no proliferative response above background

## TT: the recall antigen, TT
[1]
  proliferation of CD4+CD25+ compared with CD4+CD25− population: present mainly in the CD4+CD25− fraction

## KLEEELKFLVYFQNEELIQKA (TCR CDR2 peptide.) [BV10S1P]
[2]
  frequency of IFN-γ secreting cells: minimal frequencies
  frequency of IL-10-secreting T cells: > 2000 cells/million PBMC

## YPNQGLQLLLKYTSAATLVKG (TCR CDR2 peptide.) [AV1S2A1N1T]
[2]
  response of MS patients compared with HC: as well or better than HC

## DLGHGLRLIHYSYGVQDTNKG (TCR CDR2 peptide.) [BV12S2A1T]
[2]
  IFN-γ response: recognition by MS patients: poorly recognized

## DLGHGLRLIHYSYGVKDTNKG (TCR CDR2 peptide.) [BV12S2A2T]
[2]
  IFN-γ response: recognition by MS patients: poorly recognized

## NQNKEFMLLISFQNEQVLQET (TCR CDR2 peptide.) [BV19S1P]
[2]
  frequency of IFN-γ secreting cells: 900 cells/million PBMC

## SSGEMIFLIYQGSYDQQNATE (TCR CDR2 peptide.) [ADV6S1A1N1]
[2]
  IFN-γ response: recognition by MS patients: poorly recognized

## KHGEAPVFLMILLKGGEQKGH (TCR CDR2 peptide.) [AV29S1A2T]
[2]
  frequency of IL-10-secreting T cells: > 1000 cells/million PBMC
  response of MS patients compared with HC: as well or better than HC

## ALGQGPQFIFQTYEEEERQRG (TCR CDR2 peptide.) [BV5S2]
[2]
  frequencies of IL-10-secreting PBMC in MS patients versus HC: significantly lower
